This is an account of results in US20020155064A1, “Method for detection and localization of malignant human tumours” (priority 1997, published 2002).

In this experiment the test system is neurotensin receptors. In words: Receptor autoradiography displacement of [125I]-neurotensin binding on tumour tissue sections. As to conditions: tissue sections from human differentiated ductal pancreatic adenocarcinoma; 40,000 cpm/100 µl [125I]-neurotensin, increasing concentrations of unlabelled peptide; 4° C., 60 minutes; FIG. 1.

Protocol: Receptor autoradiography is performed on 10- and 20-mm thick cryostat sections of the various tumour samples, as described by Reubi et al. (Cancer Res. 1990, 50, 5969-5977). […] After incubation, the sections are washed for eight minutes at 4° C. in four consecutive baths containing 50 mM Tris-HCl buffer, pH 7.6, dipped in ice-cold water, and then quickly dried in a refrigerator under a stream of cold air. The sections are subsequently exposed to a ^3H-Ultrofilm for 1 week, to detect the precise location of the radioactivity. […] Each point represents the optical density of binding measured in the tumour area. Non-specific binding is subtracted from all values.

On to “Ac-Arg-Arg-Pro-Tyr-Ile-Leu-OH [acetyl-neurotensin 8-13]”, for which the “displacement of [125I]-neurotensin binding” value was “Complete displacement”.
